Data: PMC11513893, “Discovery of Oral Degraders of the ROS1 Fusion Protein with Potent Activity against Secondary Resistance Mutations” (Journal of Medicinal Chemistry, 2024)
“And” between values parts separate entries of the source, which are not always exact repeats. Equal entries are not always repeated.

How the values were obtained:
PTK2B = PTK2B (Homo sapiens, UniProt Q14289); assay: Kinase assay; type: biochemical; details: average of duplicate measurements
CLK1 = CLK1 (Homo sapiens, UniProt P49759); assay: Kinase assay; type: biochemical; details: average of duplicate measurements
[1] = test system: Ba/F3 ROS1 (CD74) S1986F-G2032R-L2086F; assay: Antiproliferation assay; type: cell-based; details: Mus musculus, BaF3; Ba/F3 cell line
[2] = test system: Ba/F3 ROS1 (CD74) S1986F-L2086F; assay: Antiproliferation assay; type: cell-based; details: Mus musculus, BaF3; Ba/F3 cell line
LTK = LTK (Homo sapiens, UniProt P29376); assay: Kinase assay; type: biochemical; details: average of duplicate measurements
ROS1 (L2086F) = ROS1 (L2086F) (Homo sapiens, UniProt P08922, L2086F); assay: Kinase assay; type: biochemical; details: average of duplicate measurements
H2228 cells = assay: Whole cell proteomic analysis; type: cell-based, human; details: 100 nM, 24 h
Method: To minimize the effect of signaling blockade on proteomic changes, we decided that a more accurate quantitative determination of proteomic alterations would be to compare degrader-treated to inhibitor-treated.
Cell pellets were dissolved in 1 mL of RIPA buffer, 10 μL of phosphatase inhibitor, and 10 μL of protease inhibitor. Proteins were extracted and concentration was determined by the BCA assay. The protein samples were digested with sequencing grade modified trypsin (Promega Corp; Madison, WI) according to the manufacturer’s instructions. The peptides were labeled using the TMT Isobaric Mass Tagging kit (Thermo Fisher Scientific; # 90,060–90,061; Waltham, MA). The labeled peptide aliquots were then pooled together for subsequent fractionation and analysis. The TMT-labeled peptide mixtures were separated by an automated Easy-nLC1000 system coupled with a Q-Exactive spectrometer (Thermo Finnigan, Waltham, MA). The identification of proteins was performed using Proteome Discoverer software v2.3 (Thermo Fisher Scientific; Waltham, MA) and Mascot v2.6 (Matrix Science, Boston, MA), based on “Uniprot Human” database. The proteins that were identified on the basis of at least one unique peptide were included in the data. The ratios of TMT reporter ion abundance in 9o-treated cells and inhibitor-treated cells were used to calculate protein relative abundance.

FER = FER (Homo sapiens, UniProt P16591); assay: Kinase assay; type: biochemical; details: average of duplicate measurements
ROS1 (G2032R) = ROS1 (G2032R) (Homo sapiens, UniProt P08922, G2032R); assay: Kinase assay; type: biochemical; details: average of duplicate measurements
[3] = Metabolic stability in human microsomes; type: in vitro ADME; details: human, pooled human microsomes, pH 7.4, 250 nM compound, NADPH, 37 °C
Method: Pooled human and rat microsomes were prepared and stored at −80 °C prior to use. A master-mix containing microsome, phosphate buffer, and test compound (9 series) solution was made as follows: (1) 3 μL of microsome (20 mg/mL) was diluted with mixed 30 μL of potassium phosphate buffer (pH 7.4; 10×) and 246 μL of water; (2) 3 μL of 25 μM drug solution was added to the microsome; (3) the master solution was prewarmed at 37 °C for 5 min. NADPH solution A (15 μL) and NADPH solution B (3 μL) from Promega were added to the above-mentioned master solution to initiate the reaction. The final concentration of 9 compounds in the reaction system was 250 nM. An aliquot of 20 μL was pipetted from the reaction solution and stopped by the addition of 180 μL of cold MeCN containing 25 ng of Tamoxifen-(N,N-dimethyl-13C2)-15N as an internal standard at the designated time points (0, 5, 15, 30, 45, and 60 min). The incubation solution was vortexed-mixed (800 rpm/10 min) and centrifuged at 3500 rpm for 10 min to precipitate proteins. The supernatant was collected and used for the LC/MS/MS analysis. The natural log of the remaining percentage of the test compound was plotted against time and the gradient of the line was determined.

[4] = test system: Ba/F3 ROS1 (SLC34A2) L2026M; assay: Antiproliferation assay; type: cell-based; details: Mus musculus, BaF3; Ba/F3 cell line
Method: (§1) Ba/F3 immortalized murine bone marrow–derived pro-B cells were obtained from Creative Biogene (Shirley, NY) and cultured in RPMI supplemented with 10% FBS and IL3 (0.5 ng/mL). Ba/F3 cells expressing ROS1 variants were maintained in RPMI supplemented with 10% FBS and puromycin (0.7 mg/mL). […] Each compound was dissolved in DMSO and serially diluted in RPMI for cell culture experiments.
(§2) To assess the 72 h effect of drug treatment on cell proliferation, 2000 to 3000 cells were plated in replicates of three in 96-well plates. The plates were placed in an incubator at 37 °C, 5% CO2 for 72 h. Following drug treatments, the cells were incubated with the Alamar Blue Assay reagent (BioRad), 5 μL each well for 4 h at 37 °C and 5% CO2. Luminescence was measured on a multiplate reader and analyzed. […] IC50 values were determined using a nonlinear regression model with a sigmoidal dose response in GraphPad. The data were collected based on triplicate experiments, and presented as mean ± SD.

Ba/F3 ROS1 (SLC34A2) = assay: Antiproliferation assay; type: cell-based; details: Mus musculus, BaF3; Ba/F3 cell line
Method: as §1, §2

[5] = test system: Ba/F3 ROS1 (SLC34A2) G2032R; assay: Antiproliferation assay; type: cell-based; details: Mus musculus, BaF3; Ba/F3 cell line
Method: as §1, §2

[6] = test system: Ba/F3 ROS1 (SLC34A2) D2033N; assay: Antiproliferation assay; type: cell-based; details: Mus musculus, BaF3; Ba/F3 cell line
Method: as §1, §2

[7] = test system: Ba/F3 ROS1 (SLC34A2) G2032R-F2075 V; assay: Antiproliferation assay; type: cell-based; details: Mus musculus, BaF3; Ba/F3 cell line
Method: as §1, §2

[8] = test system: Ba/F3 ROS1 (SLC34A2) V2098I; assay: Antiproliferation assay; type: cell-based; details: Mus musculus, BaF3; Ba/F3 cell line
Method: as §1, §2

FES = FES (Homo sapiens, UniProt P07332); assay: Kinase assay; type: biochemical; details: average of duplicate measurements
FES, sequence (P07332 whole entry, species assumed): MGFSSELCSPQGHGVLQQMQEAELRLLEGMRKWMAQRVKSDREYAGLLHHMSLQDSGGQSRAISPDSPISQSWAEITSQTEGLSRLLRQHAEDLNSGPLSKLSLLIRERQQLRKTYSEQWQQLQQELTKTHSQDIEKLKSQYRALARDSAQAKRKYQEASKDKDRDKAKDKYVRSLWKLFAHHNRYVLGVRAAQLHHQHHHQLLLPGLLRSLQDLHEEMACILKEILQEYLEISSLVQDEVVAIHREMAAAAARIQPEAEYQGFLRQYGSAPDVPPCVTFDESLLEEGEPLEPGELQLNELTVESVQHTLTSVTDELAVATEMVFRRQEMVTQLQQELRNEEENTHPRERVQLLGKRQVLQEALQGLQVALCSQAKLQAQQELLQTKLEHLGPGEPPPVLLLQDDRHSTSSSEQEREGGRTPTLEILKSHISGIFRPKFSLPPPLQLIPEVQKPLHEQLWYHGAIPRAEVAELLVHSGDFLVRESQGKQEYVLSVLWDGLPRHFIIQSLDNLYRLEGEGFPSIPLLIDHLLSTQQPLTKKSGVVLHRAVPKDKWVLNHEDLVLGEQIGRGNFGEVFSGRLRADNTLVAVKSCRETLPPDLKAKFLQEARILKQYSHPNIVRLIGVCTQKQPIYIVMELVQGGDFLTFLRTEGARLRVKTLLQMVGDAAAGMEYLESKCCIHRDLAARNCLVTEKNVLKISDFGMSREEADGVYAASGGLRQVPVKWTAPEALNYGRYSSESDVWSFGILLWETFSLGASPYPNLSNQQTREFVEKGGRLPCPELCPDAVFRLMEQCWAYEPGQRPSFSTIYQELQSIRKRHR

ROS1 (G2032R), sequence (P08922 28-2347 G2032R): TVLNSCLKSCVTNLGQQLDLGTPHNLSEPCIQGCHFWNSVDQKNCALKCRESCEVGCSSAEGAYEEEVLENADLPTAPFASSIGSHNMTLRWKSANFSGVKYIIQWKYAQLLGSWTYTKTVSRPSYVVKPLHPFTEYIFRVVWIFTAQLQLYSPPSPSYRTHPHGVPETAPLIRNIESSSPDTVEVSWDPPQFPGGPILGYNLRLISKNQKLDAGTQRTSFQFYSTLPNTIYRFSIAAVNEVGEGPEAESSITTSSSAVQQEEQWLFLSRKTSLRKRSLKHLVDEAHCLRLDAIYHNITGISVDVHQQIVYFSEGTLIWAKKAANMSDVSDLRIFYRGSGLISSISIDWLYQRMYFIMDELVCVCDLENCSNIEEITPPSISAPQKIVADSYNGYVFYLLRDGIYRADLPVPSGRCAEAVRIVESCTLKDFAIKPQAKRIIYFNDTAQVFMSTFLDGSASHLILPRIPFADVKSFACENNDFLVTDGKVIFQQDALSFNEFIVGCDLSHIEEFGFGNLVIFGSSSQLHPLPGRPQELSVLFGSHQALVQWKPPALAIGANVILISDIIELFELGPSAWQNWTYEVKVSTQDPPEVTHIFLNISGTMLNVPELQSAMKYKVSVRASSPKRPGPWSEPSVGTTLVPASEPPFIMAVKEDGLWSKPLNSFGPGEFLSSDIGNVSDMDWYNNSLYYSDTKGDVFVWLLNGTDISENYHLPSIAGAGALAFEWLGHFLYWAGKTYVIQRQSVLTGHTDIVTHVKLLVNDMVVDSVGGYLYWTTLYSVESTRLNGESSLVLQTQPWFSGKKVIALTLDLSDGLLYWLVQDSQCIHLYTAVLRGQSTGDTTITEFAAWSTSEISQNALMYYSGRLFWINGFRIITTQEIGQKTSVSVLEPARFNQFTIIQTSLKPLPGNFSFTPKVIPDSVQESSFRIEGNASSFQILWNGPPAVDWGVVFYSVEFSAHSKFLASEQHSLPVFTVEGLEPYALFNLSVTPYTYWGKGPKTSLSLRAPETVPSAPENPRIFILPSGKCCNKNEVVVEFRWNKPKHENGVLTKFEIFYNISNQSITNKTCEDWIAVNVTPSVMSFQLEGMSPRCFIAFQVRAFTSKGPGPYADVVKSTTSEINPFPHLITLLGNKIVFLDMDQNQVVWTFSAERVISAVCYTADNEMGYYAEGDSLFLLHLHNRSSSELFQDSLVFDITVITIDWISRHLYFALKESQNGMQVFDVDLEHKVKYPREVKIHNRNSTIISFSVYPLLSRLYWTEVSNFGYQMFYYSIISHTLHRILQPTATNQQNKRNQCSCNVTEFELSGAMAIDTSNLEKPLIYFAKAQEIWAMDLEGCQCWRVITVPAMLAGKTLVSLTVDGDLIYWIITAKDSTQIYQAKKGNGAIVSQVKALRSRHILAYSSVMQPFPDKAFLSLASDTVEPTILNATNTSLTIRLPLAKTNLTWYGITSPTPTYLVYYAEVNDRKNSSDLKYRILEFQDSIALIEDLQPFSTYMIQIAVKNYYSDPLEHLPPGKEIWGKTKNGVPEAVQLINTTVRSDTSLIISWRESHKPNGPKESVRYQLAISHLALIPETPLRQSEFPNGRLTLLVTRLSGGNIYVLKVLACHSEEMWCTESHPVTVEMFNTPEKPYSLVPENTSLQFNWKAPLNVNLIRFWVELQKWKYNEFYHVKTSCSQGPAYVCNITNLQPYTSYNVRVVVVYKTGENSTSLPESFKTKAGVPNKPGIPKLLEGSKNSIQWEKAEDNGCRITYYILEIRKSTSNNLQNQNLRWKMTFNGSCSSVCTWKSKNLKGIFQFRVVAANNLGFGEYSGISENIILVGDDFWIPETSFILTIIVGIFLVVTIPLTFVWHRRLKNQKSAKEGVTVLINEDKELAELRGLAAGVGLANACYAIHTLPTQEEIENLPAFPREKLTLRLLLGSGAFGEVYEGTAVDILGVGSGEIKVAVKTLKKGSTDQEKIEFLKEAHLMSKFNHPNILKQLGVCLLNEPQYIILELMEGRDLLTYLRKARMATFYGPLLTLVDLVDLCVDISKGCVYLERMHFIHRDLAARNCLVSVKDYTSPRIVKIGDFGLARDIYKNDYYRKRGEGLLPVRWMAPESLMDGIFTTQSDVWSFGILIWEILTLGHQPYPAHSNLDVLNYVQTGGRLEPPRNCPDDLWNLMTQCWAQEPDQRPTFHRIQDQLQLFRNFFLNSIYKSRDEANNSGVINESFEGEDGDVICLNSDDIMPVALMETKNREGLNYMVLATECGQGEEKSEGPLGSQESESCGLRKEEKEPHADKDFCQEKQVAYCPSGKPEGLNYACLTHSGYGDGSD
ROS1 (L2086F), sequence (P08922 28-2347 L2086F): as the sequence (P08922 28-2347 G2032R) above, with R2005G, L2059F counted along it
PTK2B, sequence (Q14289 whole entry, species assumed): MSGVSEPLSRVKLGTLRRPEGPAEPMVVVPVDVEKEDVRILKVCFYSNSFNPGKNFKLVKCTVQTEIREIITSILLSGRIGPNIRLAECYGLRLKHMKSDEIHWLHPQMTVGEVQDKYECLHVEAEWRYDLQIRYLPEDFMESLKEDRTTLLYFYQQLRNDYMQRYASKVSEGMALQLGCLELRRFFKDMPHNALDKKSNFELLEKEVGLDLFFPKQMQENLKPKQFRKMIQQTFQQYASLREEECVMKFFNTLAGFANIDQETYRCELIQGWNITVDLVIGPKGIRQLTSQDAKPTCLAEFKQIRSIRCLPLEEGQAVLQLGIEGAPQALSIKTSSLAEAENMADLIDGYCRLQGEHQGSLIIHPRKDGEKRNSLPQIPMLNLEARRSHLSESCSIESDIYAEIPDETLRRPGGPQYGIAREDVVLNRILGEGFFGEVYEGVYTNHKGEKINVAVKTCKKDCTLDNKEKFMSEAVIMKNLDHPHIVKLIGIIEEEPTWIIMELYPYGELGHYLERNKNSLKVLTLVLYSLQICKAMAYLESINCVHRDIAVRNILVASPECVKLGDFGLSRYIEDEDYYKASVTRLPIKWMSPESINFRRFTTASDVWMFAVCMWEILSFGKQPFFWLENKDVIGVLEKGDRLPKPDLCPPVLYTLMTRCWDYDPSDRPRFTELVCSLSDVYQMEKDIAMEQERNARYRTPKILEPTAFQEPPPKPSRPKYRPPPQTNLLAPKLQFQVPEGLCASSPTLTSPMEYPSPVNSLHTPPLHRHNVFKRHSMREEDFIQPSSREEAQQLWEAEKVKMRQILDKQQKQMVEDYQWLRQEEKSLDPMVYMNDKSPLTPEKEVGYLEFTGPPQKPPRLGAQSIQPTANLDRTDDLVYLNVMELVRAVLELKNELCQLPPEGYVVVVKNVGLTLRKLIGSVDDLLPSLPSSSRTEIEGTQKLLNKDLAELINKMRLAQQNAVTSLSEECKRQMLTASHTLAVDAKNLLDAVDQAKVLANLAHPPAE
LTK, sequence (P29376 17-864, species assumed): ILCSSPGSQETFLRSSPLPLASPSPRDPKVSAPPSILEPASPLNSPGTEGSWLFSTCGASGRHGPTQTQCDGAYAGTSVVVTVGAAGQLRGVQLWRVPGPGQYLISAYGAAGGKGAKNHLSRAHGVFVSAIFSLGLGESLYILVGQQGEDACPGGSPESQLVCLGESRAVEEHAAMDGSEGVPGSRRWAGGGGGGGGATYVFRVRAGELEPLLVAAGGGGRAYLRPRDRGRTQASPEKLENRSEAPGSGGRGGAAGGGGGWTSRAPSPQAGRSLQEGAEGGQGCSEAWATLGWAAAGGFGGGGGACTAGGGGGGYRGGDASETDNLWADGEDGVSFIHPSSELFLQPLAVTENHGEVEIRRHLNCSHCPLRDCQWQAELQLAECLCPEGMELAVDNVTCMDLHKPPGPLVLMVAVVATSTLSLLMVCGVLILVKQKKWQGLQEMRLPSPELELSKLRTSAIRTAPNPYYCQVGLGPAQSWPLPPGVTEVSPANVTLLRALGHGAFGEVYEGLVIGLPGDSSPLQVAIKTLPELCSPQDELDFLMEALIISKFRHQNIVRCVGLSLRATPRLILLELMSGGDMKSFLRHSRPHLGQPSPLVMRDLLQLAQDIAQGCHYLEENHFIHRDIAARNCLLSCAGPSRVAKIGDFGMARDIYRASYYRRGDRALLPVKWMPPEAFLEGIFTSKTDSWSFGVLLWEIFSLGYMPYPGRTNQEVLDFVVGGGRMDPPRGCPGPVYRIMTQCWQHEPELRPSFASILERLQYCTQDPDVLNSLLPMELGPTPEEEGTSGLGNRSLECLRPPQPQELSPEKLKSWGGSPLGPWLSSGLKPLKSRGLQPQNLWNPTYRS

- IC50 (PTK2B): 34 nM
- IC50 (CLK1): 35 nM
- IC50 [1]: 37.8 ± 4.4 nM
- IC50 [2]: 1.9 ± 0.4 nM
- IC50 (LTK): 54 nM
- IC50 (ROS1 (L2086F)): 218 nM
- IC50 (FER): 3.1 nM
- IC50 (ROS1 (G2032R)): 161 nM
- microsomal CLint at 1 h, 0.25 µM [3]: 71.1 µL/min/mg
- half-life at 1 h, 0.25 µM ([3]; read-out: metabolic stability in human microsomes T1/2): 48.8 min
- IC50 [4]: 2.5 ± 0.6 nM
- IC50 (Ba/F3 ROS1 (SLC34A2)): 1.1 ± 0.4 nM
- IC50 [5]: 6.3 ± 1.1 nM
- IC50 [6]: 9.7 ± 2.6 nM
- IC50 [7]: 5.6 ± 0.6 nM
- IC50 [8]: 4.6 ± 2.1 nM
- IC50 (FES): < 10 nM and 7.5 nM
SMILES: COc1cc(N2CCC(N3CCN(CC4CCN(c5ccc6c(c5)CN(C5CCC(=O)NC5=O)C6=O)CC4)CC3)CC2)ccc1Nc1ncc(Cl)c(Nc2ccccc2P(C)(C)=O)n1 (stereo not drawn) [9o, 3-(5-(4-((4-(1-(4-((5-Chloro-4-((2-(dimethylphosphoryl)phenyl)amino)pyrimidin-2-yl)amino)-3-methoxyphenyl)piperidin-4-yl)piperazin-1-yl)methyl)piperidin-1-yl)-1-oxoisoindolin-2-yl)piperidine-2,6-dione]
- kinases significantly degraded (proteomics, degrader-treated vs brigatinib-treated) (H2228 cells): only three kinases were significantly degraded
